Data published in PMC12274840 (The Journal of Biological Chemistry, 2025).
In brackets after ≈: the same amount, converted by molar mass. Read-outs that look alike come from different tables or passages of the source.

Experiments:
[1] = test system: E. coli KA797 cells carrying pUK21 vector without the β-lactamase gene; assay: microbe, parasite or virus in culture; assay type: cell-based; conditions: Escherichia coli; antibiotic alone; pUK21 without β-lactamase gene; read-out: MIC
[2] = test system: E. coli KA797 cells carrying pUK21 with CTX-M-14 WT (Tat); assay: microbe, parasite or virus in culture; assay type: cell-based; conditions: Escherichia coli, antibiotic alone
[3] = test system: E. coli KA797 cells carrying pUK21 with NmcA (pelB/Sec); assay: microbe, parasite or virus in culture; assay type: cell-based; conditions: Escherichia coli, antibiotic alone
[4] = test system: E. coli KA797 cells carrying BlaC position 105 library; assay type: cell-based, Escherichia coli; conditions: ampicillin; for Fi AMP AVG: average of replicates
[5] = test system: E. coli KA797 cells carrying TEM-1 position 105 library; assay type: cell-based; conditions: for Fi AMP AVG: average of replicates

CC1(C)S[C@@H]2[C@H](NC(=O)[C@H](N)c3ccccc3)C(=O)N2[C@H]1C(=O)O [ampicillin]
MIC [1]: 10 µg/mL (≈ 28.6 µM)
MIC [2]: 1600 µg/mL (≈ 4580 µM)
MIC [3]: 400 µg/mL (≈ 1140 µM)
Significance (Fi AMP AVG) ([4]; AA 105 Ala): +
Fi AMP AVG ([4]; AA 105 Ala): 0.883
Fi AMP 1 ([4]; AA 105 Ala, replicate 1): 0.406
Fi AMP 2 ([4]; AA 105 Ala, replicate 2): 1.100
Fi AMP 3 ([4]; AA 105 Ala, replicate 3): 1.141
Fi AMP AVG ([4]; AA 105 Arg): 0.475
Fi AMP 1 ([4]; AA 105 Arg, replicate 1): 0.818
Fi AMP 2 ([4]; AA 105 Arg, replicate 2): -0.366
Fi AMP 3 ([4]; AA 105 Arg, replicate 3): 0.972
Fi AMP AVG ([4]; AA 105 Asn): -0.118
Fi AMP 1 ([4]; AA 105 Asn, replicate 1): -0.339
Fi AMP 2 ([4]; AA 105 Asn, replicate 2): -0.227
Fi AMP 3 ([4]; AA 105 Asn, replicate 3): 0.211
Fi AMP AVG ([4]; AA 105 Asp): 0.229
Fi AMP 1 ([4]; AA 105 Asp, replicate 1): 0.470
Fi AMP 3 ([4]; AA 105 Asp, replicate 3): -0.012
Significance (Fi AMP AVG) ([4]; AA 105 Cys): +
Fi AMP AVG ([4]; AA 105 Cys): 0.500
Fi AMP 1 ([4]; AA 105 Cys, replicate 1): 0.488
Fi AMP 2 ([4]; AA 105 Cys, replicate 2): 0.257
Fi AMP 3 ([4]; AA 105 Cys, replicate 3): 0.755
Fi AMP AVG ([4]; AA 105 Gln): 0.694
Fi AMP 3 ([4]; AA 105 Gln, replicate 3): 0.694
Fi AMP AVG ([4]; AA 105 Glu): 0.120
Fi AMP 1 ([4]; AA 105 Glu, replicate 1): -0.486
Fi AMP 2 ([4]; AA 105 Glu, replicate 2): 1.183
Fi AMP 3 ([4]; AA 105 Glu, replicate 3): -0.337
Fi AMP AVG ([4]; AA 105 Gly): 0.342
Fi AMP 1 ([4]; AA 105 Gly, replicate 1): 0.540
Fi AMP 2 ([4]; AA 105 Gly, replicate 2): -0.133
Fi AMP 3 ([4]; AA 105 Gly, replicate 3): 0.619
Significance (Fi AMP AVG) ([4]; AA 105 His): +
Fi AMP AVG ([4]; AA 105 His): 2.187
Fi AMP 1 ([4]; AA 105 His, replicate 1): 2.095
Fi AMP 2 ([4]; AA 105 His, replicate 2): 2.262
Fi AMP 3 ([4]; AA 105 His, replicate 3): 2.205
Fi AMP AVG ([4]; AA 105 Ile (WT)): 0.000
Fi AMP 1 ([4]; AA 105 Ile (WT), replicate 1): 0.000
Fi AMP 2 ([4]; AA 105 Ile (WT), replicate 2): 0.000
Fi AMP 3 ([4]; AA 105 Ile (WT), replicate 3): 0.000
Fi AMP AVG ([4]; AA 105 Leu): 0.259
Fi AMP 1 ([4]; AA 105 Leu, replicate 1): 0.406
Fi AMP 2 ([4]; AA 105 Leu, replicate 2): -0.033
Fi AMP 3 ([4]; AA 105 Leu, replicate 3): 0.405
Fi AMP AVG ([4]; AA 105 Lys): 0.741
Fi AMP 1 ([4]; AA 105 Lys, replicate 1): 0.741
Fi AMP AVG ([4]; AA 105 Met): 0.434
Fi AMP 1 ([4]; AA 105 Met, replicate 1): 0.165
Fi AMP 2 ([4]; AA 105 Met, replicate 2): 0.714
Fi AMP 3 ([4]; AA 105 Met, replicate 3): 0.423
Significance (Fi AMP AVG) ([4]; AA 105 Phe): +
Fi AMP AVG ([4]; AA 105 Phe): 3.116
Fi AMP 1 ([4]; AA 105 Phe, replicate 1): 3.353
Fi AMP 2 ([4]; AA 105 Phe, replicate 2): 2.935
Fi AMP 3 ([4]; AA 105 Phe, replicate 3): 3.061
Fi AMP AVG ([4]; AA 105 Pro): 0.423
Fi AMP 1 ([4]; AA 105 Pro, replicate 1): 0.675
Fi AMP 2 ([4]; AA 105 Pro, replicate 2): 0.012
Fi AMP 3 ([4]; AA 105 Pro, replicate 3): 0.583
Fi AMP AVG ([4]; AA 105 Ser): 0.267
Fi AMP 1 ([4]; AA 105 Ser, replicate 1): 1.268
Fi AMP 2 ([4]; AA 105 Ser, replicate 2): -0.404
Fi AMP 3 ([4]; AA 105 Ser, replicate 3): -0.062
Fi AMP AVG ([4]; AA 105 Thr): 0.222
Fi AMP 1 ([4]; AA 105 Thr, replicate 1): -0.283
Fi AMP 2 ([4]; AA 105 Thr, replicate 2): 0.921
Fi AMP 3 ([4]; AA 105 Thr, replicate 3): 0.029
Significance (Fi AMP AVG) ([4]; AA 105 Trp): +
Fi AMP AVG ([4]; AA 105 Trp): 3.126
Fi AMP 1 ([4]; AA 105 Trp, replicate 1): 3.329
Fi AMP 2 ([4]; AA 105 Trp, replicate 2): 2.872
Fi AMP 3 ([4]; AA 105 Trp, replicate 3): 3.175
Significance (Fi AMP AVG) ([4]; AA 105 Tyr): +
Fi AMP AVG ([4]; AA 105 Tyr): 3.396
Fi AMP 1 ([4]; AA 105 Tyr, replicate 1): 3.695
Fi AMP 2 ([4]; AA 105 Tyr, replicate 2): 3.143
Fi AMP 3 ([4]; AA 105 Tyr, replicate 3): 3.349
Fi AMP AVG ([4]; AA 105 Val): -0.310
Fi AMP 1 ([4]; AA 105 Val, replicate 1): -0.429
Fi AMP 3 ([4]; AA 105 Val, replicate 3): -0.191
WT abs Fi 1 ([4]; WT (Ile 105) absolute fitness, replicate 1): -1.907
WT abs Fi 2 ([4]; WT (Ile 105) absolute fitness, replicate 2): -1.350
WT abs Fi 3 ([4]; WT (Ile 105) absolute fitness, replicate 3): -1.353
Significance (Average fitnes AMP) ([5]; AA 105 Ala): -
Fi AMP AVG ([5]; AA 105 Ala): -0.222
Fi AMP 1 ([5]; AA 105 Ala, replicate 1): -0.205
Fi AMP 2 ([5]; AA 105 Ala, replicate 2): -0.239
Significance (Average fitnes AMP) ([5]; AA 105 Arg): -
Fi AMP AVG ([5]; AA 105 Arg): -0.576
Fi AMP 1 ([5]; AA 105 Arg, replicate 1): -0.568
Fi AMP 2 ([5]; AA 105 Arg, replicate 2): -0.584
Significance (Average fitnes AMP) ([5]; AA 105 Asn): -
Fi AMP AVG ([5]; AA 105 Asn): -0.070
Fi AMP 1 ([5]; AA 105 Asn, replicate 1): -0.049
Fi AMP 2 ([5]; AA 105 Asn, replicate 2): -0.091
Significance (Average fitnes AMP) ([5]; AA 105 Asp): -
Fi AMP AVG ([5]; AA 105 Asp): -0.429
Fi AMP 1 ([5]; AA 105 Asp, replicate 1): -0.401
Fi AMP 2 ([5]; AA 105 Asp, replicate 2): -0.457
Significance (Average fitnes AMP) ([5]; AA 105 Cys): -
Fi AMP AVG ([5]; AA 105 Cys): -0.587
Fi AMP 1 ([5]; AA 105 Cys, replicate 1): -0.602
Fi AMP 2 ([5]; AA 105 Cys, replicate 2): -0.572
Significance (Average fitnes AMP) ([5]; AA 105 Gln): -
Fi AMP AVG ([5]; AA 105 Gln): -0.282
Fi AMP 1 ([5]; AA 105 Gln, replicate 1): -0.271
Fi AMP 2 ([5]; AA 105 Gln, replicate 2): -0.293
Significance (Average fitnes AMP) ([5]; AA 105 Glu): -
Fi AMP AVG ([5]; AA 105 Glu): -0.667
Fi AMP 1 ([5]; AA 105 Glu, replicate 1): -0.663
Fi AMP 2 ([5]; AA 105 Glu, replicate 2): -0.672
Significance (Average fitnes AMP) ([5]; AA 105 Gly): -
Fi AMP AVG ([5]; AA 105 Gly): -0.061
Fi AMP 1 ([5]; AA 105 Gly, replicate 1): -0.036
Fi AMP 2 ([5]; AA 105 Gly, replicate 2): -0.087
Significance (Average fitnes AMP) ([5]; AA 105 His): -
Fi AMP AVG ([5]; AA 105 His): -0.071
Fi AMP 1 ([5]; AA 105 His, replicate 1): -0.065
Fi AMP 2 ([5]; AA 105 His, replicate 2): -0.077
Significance (Average fitnes AMP) ([5]; AA 105 Ile): -
Fi AMP AVG ([5]; AA 105 Ile): -0.580
Fi AMP 1 ([5]; AA 105 Ile, replicate 1): -0.558
Fi AMP 2 ([5]; AA 105 Ile, replicate 2): -0.602
Significance (Average fitnes AMP) ([5]; AA 105 Leu): -
Fi AMP AVG ([5]; AA 105 Leu): -0.490
Fi AMP 1 ([5]; AA 105 Leu, replicate 1): -0.459
Fi AMP 2 ([5]; AA 105 Leu, replicate 2): -0.521
Significance (Average fitnes AMP) ([5]; AA 105 Lys): -
Fi AMP AVG ([5]; AA 105 Lys): -0.754
Fi AMP 1 ([5]; AA 105 Lys, replicate 1): -0.749
Fi AMP 2 ([5]; AA 105 Lys, replicate 2): -0.759
Significance (Average fitnes AMP) ([5]; AA 105 Met): -
Fi AMP AVG ([5]; AA 105 Met): -0.188
Fi AMP 1 ([5]; AA 105 Met, replicate 1): -0.138
Fi AMP 2 ([5]; AA 105 Met, replicate 2): -0.238
Significance (Average fitnes AMP) ([5]; AA 105 Phe): -
Fi AMP AVG ([5]; AA 105 Phe): -0.048
Fi AMP 1 ([5]; AA 105 Phe, replicate 1): -0.041
Fi AMP 2 ([5]; AA 105 Phe, replicate 2): -0.054
Significance (Average fitnes AMP) ([5]; AA 105 Pro): -
Fi AMP AVG ([5]; AA 105 Pro): -0.152
Fi AMP 1 ([5]; AA 105 Pro, replicate 1): -0.157
Fi AMP 2 ([5]; AA 105 Pro, replicate 2): -0.147
Significance (Average fitnes AMP) ([5]; AA 105 Ser): -
Fi AMP AVG ([5]; AA 105 Ser): -0.203
Fi AMP 1 ([5]; AA 105 Ser, replicate 1): -0.219
Fi AMP 2 ([5]; AA 105 Ser, replicate 2): -0.186
Significance (Average fitnes AMP) ([5]; AA 105 Thr): -
Fi AMP AVG ([5]; AA 105 Thr): -0.391
Fi AMP 1 ([5]; AA 105 Thr, replicate 1): -0.402
Fi AMP 2 ([5]; AA 105 Thr, replicate 2): -0.379
Fi AMP AVG ([5]; AA 105 Trp): 0.019
Fi AMP 1 ([5]; AA 105 Trp, replicate 1): 0.033
Fi AMP 2 ([5]; AA 105 Trp, replicate 2): 0.006
Fi AMP AVG ([5]; AA 105 Tyr): 0.000
Fi AMP 1 ([5]; AA 105 Tyr, replicate 1): 0.000
Fi AMP 2 ([5]; AA 105 Tyr, replicate 2): 0.000
Significance (Average fitnes AMP) ([5]; AA 105 Val): -
Fi AMP AVG ([5]; AA 105 Val): -0.403
Fi AMP 1 ([5]; AA 105 Val, replicate 1): -0.371
Fi AMP 2 ([5]; AA 105 Val, replicate 2): -0.435
WT abs Fi 1 ([5]; absolute fitness of TEM-1 WT, AMP, replicate 1): 0.351
WT abs Fi 2 ([5]; absolute fitness of TEM-1 WT, AMP, replicate 2): 0.374
